Data: PubChem BioAssay AID330 (DTP/NCI, 2004)
Values joined by “and” are separate entries in the source; they are usually repeats but may differ in a detail not shown here. Equal values may be shown once. Toxic doses and inconclusive results are not listed. The calls were made as follows: active = survival T/C of 150% or more; inactive = T/C below 125% in these data.

Test system: P388 leukemia ip, CD2F1 mice, survival T/C
Assay: NCI In Vivo Anticancer Drug Screen. Data for tumor model P388 Leukemia (intraperitoneal) in CD2F1 (CDF1) mice
Details: endpoint: median survival time, higher = longer survival
Description: The antitumor activity of compounds was measured in mice bearing transplantable tumors. Survival or tumor size were measured and the results are expressed as the measurement made in the treated group (T) divided by the measurement made in the vehicle treated control group (C). The tumor model used in this assay is P388 Leukemia (intraperitoneal) in CD2F1 (CDF1) mice

[1] = dose: 50.0 mg/kg/injection, schedule: Q01DX009 (ip), vehicle: saline
[2] = dose: 100.0 mg/kg/injection, schedule: Q01DX009 (ip), vehicle: saline
[3] = dose: 200.0 mg/kg/injection, schedule: Q01DX009 (ip), vehicle: saline
[4] = dose: 50.0 mg/kg/injection, schedule: Q01DX005 (ip), vehicle: Klucel (hydroxypropylcellulose) (HPC)
[5] = dose: 100.0 mg/kg/injection, schedule: Q01DX005 (ip), vehicle: Klucel (hydroxypropylcellulose) (HPC)
[6] = dose: 200.0 mg/kg/injection, schedule: Q01DX005 (ip), vehicle: Klucel (hydroxypropylcellulose) (HPC)
[7] = dose: 25.0 mg/kg/injection, schedule: Q01DX009 (ip), vehicle: saline with Tween-80
[8] = dose: 50.0 mg/kg/injection, schedule: Q01DX009 (ip), vehicle: saline with Tween-80
[9] = dose: 100.0 mg/kg/injection, schedule: Q01DX009 (ip), vehicle: saline with Tween-80
[10] = dose: 200.0 mg/kg/injection, schedule: Q01DX009 (ip), vehicle: saline with Tween-80
[11] = dose: 25.0 mg/kg/injection, schedule: Q01DX005 (ip), vehicle: saline with Tween-80
[12] = dose: 50.0 mg/kg/injection, schedule: Q01DX005 (ip), vehicle: saline with Tween-80
[13] = dose: 6.25 mg/kg/injection, schedule: Q01DX005 (ip), vehicle: Klucel (hydroxypropylcellulose) (HPC)
[14] = dose: 12.5 mg/kg/injection, schedule: Q01DX005 (ip), vehicle: Klucel (hydroxypropylcellulose) (HPC)
[15] = dose: 25.0 mg/kg/injection, schedule: Q01DX005 (ip), vehicle: Klucel (hydroxypropylcellulose) (HPC)
[16] = dose: 100.0 mg/kg/injection, schedule: Q01DX005 (ip), vehicle: saline
[17] = dose: 100.0 mg/kg/injection, schedule: Q01DX005 (ip), vehicle: saline with Tween-80
[18] = dose: 200.0 mg/kg/injection, schedule: Q01DX005 (ip), vehicle: saline with Tween-80

Measured: T/C

NC(=Nc1ccccc1)c1ccccn1
inactive: [1] 95 % of control | [2] 94 % of control | [3] 95 % of control

O=C(CC1(O)C(=O)Nc2c(Cl)cccc21)c1cccs1 (stereo not given)
inactive: [4] 103 % of control | [5] 100 % of control | [6] 104 % of control

CC(C)(C)N(OC(=O)c1ccc(Cl)cc1)c1ccccc1
inactive: [7] 99 % of control | [8] 99 % of control

CC(CN=C(CC(=O)c1ccccc1)c1ccccc1)N=C(CC(=O)c1ccccc1)c1ccccc1.[Cu] (stereo not given)
inactive: [8] 100 % of control | [9] 106 % of control | [10] 91 % of control

CCOC(=O)c1cccc([N+](=O)[O-])c1C(=O)OCCN(CC)CC
inactive: dose: 100.0 mg/kg/injection, schedule: Q04DX002 (ip), vehicle: saline with Tween-80 100 % of control | dose: 200.0 mg/kg/injection, schedule: Q04DX002 (ip), vehicle: saline with Tween-80 122 % of control

O=C1NC(c2ccccc2)(c2ccccc2)C(=O)N1CCS
inactive: dose: 25.0 mg/kg/injection, schedule: Q04DX003 (ip), vehicle: Klucel (hydroxypropylcellulose) (HPC) 99 % of control and 106 % of control | dose: 50.0 mg/kg/injection, schedule: Q04DX003 (ip), vehicle: Klucel (hydroxypropylcellulose) (HPC) 100 % of control | dose: 100.0 mg/kg/injection, schedule: Q04DX003 (ip), vehicle: Klucel (hydroxypropylcellulose) (HPC) 100 % of control and 114 % of control | dose: 200.0 mg/kg/injection, schedule: Q04DX003 (ip), vehicle: Klucel (hydroxypropylcellulose) (HPC) 104 % of control and 108 % of control | dose: 400.0 mg/kg/injection, schedule: Q04DX003 (ip), vehicle: Klucel (hydroxypropylcellulose) (HPC) 112 % of control and 114 % of control

C/C(=N\Nc1cc(C)c2ccccc2n1)c1ccccn1
inactive: dose: 12.5 mg/kg/injection, schedule: Q01DX005 (ip), vehicle: saline with Tween-80 103 % of control | [11] 103 % of control | [12] 102 % of control and 115 % of control

NC(=O)c1cc([N+](=O)[O-])cc([N+](=O)[O-])c1Cl
inactive: dose: 6.25 mg/kg/injection, schedule: Q01DX009 (ip), vehicle: Klucel (hydroxypropylcellulose) (HPC) 102 % of control

N#Cc1ccc[n+](CC(=O)c2ccc3ccccc3c2)c1
inactive: [13] 103 % of control | [14] 103 % of control | [15] 100 % of control

Clc1ccc(N2C=Nc3ccc(Cl)cc3C2)cc1
inactive: dose: 50.0 mg/kg/injection, schedule: Q01DX009 (ip), vehicle: Klucel (hydroxypropylcellulose) (HPC) 100 % of control | dose: 100.0 mg/kg/injection, schedule: Q01DX009 (ip), vehicle: Klucel (hydroxypropylcellulose) (HPC) 97 % of control | dose: 200.0 mg/kg/injection, schedule: Q01DX009 (ip), vehicle: Klucel (hydroxypropylcellulose) (HPC) 98 % of control

O=CNCO
inactive: dose: 250.0 mg/kg/injection, schedule: Q01DX005 (ip), vehicle: water 100 % of control | dose: 500.0 mg/kg/injection, schedule: Q01DX005 (ip), vehicle: water 101 % of control and 103 % of control | dose: 1000.0 mg/kg/injection, schedule: Q01DX005 (ip), vehicle: water 108 % of control and 110 % of control | dose: 2000.0 mg/kg/injection, schedule: Q01DX005 (ip), vehicle: water 114 % of control

C=[CH][Sn]([CH]=C)([c]1ccccc1)[c]1ccccc1
inactive: dose: 50.0 mg/kg/injection, schedule: Q01DX005 (ip), vehicle: saline 107 % of control | [16] 108 % of control | dose: 200.0 mg/kg/injection, schedule: Q01DX005 (ip), vehicle: saline 104 % of control

CCOC(=O)c1c[nH]c2cc(Cl)ccc2c1=O
inactive: [8] 93 % of control | [9] 98 % of control | [10] 93 % of control

CC(C)NC(=O)OCc1c(COC(=O)NC(C)C)c(S(C)(=O)=O)n2c1CCC2
inactive: [11] 89 % of control | [12] 86 % of control | [17] 88 % of control | [18] 91 % of control

O=C1Oc2ccccc2C(=O)C1=S1CCCC1
inactive: [4] 98 % of control | [5] 91 % of control | [6] 94 % of control

NC(=S)/N=C(/N)NC(=O)c1ccccc1
inactive: [7] 87 % of control | [8] 87 % of control | [9] 86 % of control | [10] 110 % of control

CN1OC2(CCCCC2)n2c(=O)c3ccccc3c(=O)n2C1c1ccccc1 (stereo not given)
inactive: [1] 100 % of control | [2] 100 % of control | [3] 95 % of control

CCCCCCCCCCCC1=c2o[nH]c2=C(c2ccccn2)C(=O)C1=O
inactive: [12] 94 % of control | [17] 86 % of control

COc1cc(/C=C/C(=O)NCCc2c[nH]c3ccc(O)cc23)ccc1O
inactive: [13] 96 % of control | [14] 95 % of control | [15] 87 % of control and 90 % of control | [4] 88 % of control | [6] 88 % of control

COc1ccc(S(=O)(=O)N/N=C\c2cc(I)cc(I)c2O)cc1
inactive: [12] 101 % of control | [17] 102 % of control | [18] 100 % of control

CC(NC1=NCCO1)c1cccc2ccccc12 (stereo not given)
inactive: dose: 12.5 mg/kg/injection, schedule: Q04DX003 (ip), vehicle: saline with Tween-80 100 % of control | dose: 25.0 mg/kg/injection, schedule: Q04DX003 (ip), vehicle: saline with Tween-80 95 % of control | dose: 50.0 mg/kg/injection, schedule: Q04DX003 (ip), vehicle: saline with Tween-80 100 % of control

COc1cc2c[n+](C)c3c4cc(OC)c(OC)cc4c(OC)cc3c2cc1OC
inactive: [14] 118 % of control | dose: 25.0 mg/kg/injection, schedule: Q01DX005 (ip), vehicle: saline 109 % of control | [4] 112 % of control | [5] 118 % of control | [16] 120 % of control

COC(=O)/C=C1\SC(OC)(N(C)c2ccccc2)N(C)C1=O (stereo not given)
inactive: dose: 60.0 mg/kg/injection, schedule: Q01DX005 (ip), vehicle: saline with Tween-80 90 % of control | dose: 120.0 mg/kg/injection, schedule: Q01DX005 (ip), vehicle: saline with Tween-80 98 % of control | dose: 240.0 mg/kg/injection, schedule: Q01DX005 (ip), vehicle: saline with Tween-80 91 % of control

COc1ccc(OC(=O)Nc2ccc(Cl)c(C(F)(F)F)c2)c(Cl)c1
inactive: dose: 1.56 mg/kg/injection, schedule: Q01DX009 (ip), vehicle: saline 100 % of control | dose: 3.12 mg/kg/injection, schedule: Q01DX009 (ip), vehicle: saline 94 % of control | dose: 6.25 mg/kg/injection, schedule: Q01DX009 (ip), vehicle: saline 88 % of control and 95 % of control | dose: 12.5 mg/kg/injection, schedule: Q01DX009 (ip), vehicle: saline 96 % of control | dose: 25.0 mg/kg/injection, schedule: Q01DX009 (ip), vehicle: saline 93 % of control | dose: 100.0 mg/kg/injection, schedule: Q01DX009 (ip), vehicle: saline + alcohol 101 % of control | dose: 200.0 mg/kg/injection, schedule: Q01DX009 (ip), vehicle: saline + alcohol 100 % of control
